The results in this text go back to US20260008793A1, “IONIZABLE CATIONIC LIPIDS INCORPORATING SILICON” (ALDEXCHEM KFT., priority 2022, published 2026).

Series [1] is described as follows: Encapsulation efficiency, RiboGreen RNA assay (Method A). In kind it is physicochemical. Conditions: LNP formulated by Method A. As for the experimental part:
(§1) The synthesized lipids were tested in term of in vitro transfection efficacy and toxicity on HeLa cells. In order to perform the mentioned biological tests, appropriate LNPs had to be formulated from the synthesized lipids. The formulation technique was different in Method A and B. The particle size, PDI and zeta potential of resulting LNPs were determined by means of Dynamic Light Scattering technique (DLS). Prior to biological testing the encapsulation efficiency (EE) of the loaded LNPs was determined by using RiboGreen RNA assay. In case of Method A Luciferase-mRNA while in case of Method B GFP-mRNA was transfected into the cells. In parallel with the transfection experiments, toxicity of the investigated LNPs was determined, in case of Method A resazurin assay while in case of Method B MTT assay was used. In the case of some lipids, the apparent pKa in LNPs was determined by using TNS titration based on the method described: Angew Chem Int Ed Engl. 2012, 51 (34), 8529-8533, doi: 10.1002/anie.201203263).
• 1. Preparation of sample stock solutions: In the top row of the 96-well plate (Row A in the plate), add 297 μL of TE buffer pH 7.4 to a single well for each sample plus a single well for a PBS blank using a multichannel pipette. • 2. Add 3 μL of sample (at 0.5 mg/ml) to these wells for a final volume of 300 μL. Add 3 μL of PBS to the blank well. Pipette to mix. This is your stock solution for each sample. The final RNA concentration of these stock solutions should be approximately 4-7 μg/mL. • 3. mRNA-LNP sample setup: • a. Add 50 μL of TE buffer pH 7.5 to the two wells directly below each sample (Rows B and C in the plate). • b. Add 50 μL of sample stock solution from Row A into the wells in Rows B and C (this assay is run in duplicate. All liquid handling should be done using a multichannel pipette). • c. Add 50 μL of Triton buffer to the wells in Rows D and E (in the plate) below each sample. • d. Add 50 μL of sample stock solution from Row A into the wells in Rows D and E. • 4. RiboGreen RNA standard curve setup: Dilute the RNA standard to produce an RNA stock at a final concentration of 20 μg/mL in TE buffer pH 7.4. The final volume should be 150 μL. Set up a standard curve (in duplicate) as using the RNA stock (20 μg/mL siRNA), TE buffer pH 7.5, and Triton buffer according the Table 2 below.
• 5. Once samples and standard curve are plated, incubate the plate at 37° C. for 10 min to lyse mRNA-LNP in the presence of Triton X-100. • 6. Meanwhile, prepare RiboGreen Solution: Sum the total number of sample wells and standard curve wells. Add three to this number, and multiply the total by 100. This is the total volume, in μL, of RiboGreen Solution needed for this assay. In a 15 mL RNAse-free Falcon tube, dilute the RiboGreen Reagent 1:100 into TE buffer pH 7.5 to the total volume calculated. • 7. Addition of RiboGreen Solution and sample readings: Remove a 96-well plate from 37° C. incubator; let it cool to room temperature as RiboGreen binding is somewhat temperature dependent. Add 100 μL of RiboGreen Solution to each well. Pop any air bubbles with a needle. Read using fluorescent plate reader (excitation=480, emission=525). • 8. Sample analysis: Use the data generated by the RiboGreen standard curve to calculate the concentration of mRNA. Transfection Efficiency with Luciferase-mRNA (Method A)

Series [2] relates to HeLa cells. Kind of series: Transfection efficiency with Luciferase-mRNA, Nano-Glo assay (Method A). Conditions: 100 ng Luciferase (SecNLuc) mRNA, 24 h, luminescence. In kind it is cell-based. How it is done: as §1
• 1. Prepare mRNA solution by adding 100 ng mRNA (SecNLuc, #P009024, RiboPro) to 5 μl Opti-MEM • a. multiply by number of wells, include different concentrations and add 10% extra • b. a standard set-up we use is 100 ng-50 ng-10 ng mRNA/well in triplicate, which would need 528 ng mRNA (includes 10% extra)
• 2. (If applicable) Prepare different concentrations in Opti-MEM (for instance 100/50/10 ng). • 3. Add 10 μl to each well and mix carefully by pipetting. • 4. Mix by swirling the plate horizontally at modest speed. Reverse in direction 3 times. • 5. Incubate for 24 hours (incubator).
This protocol is applied to measure luciferase activity for secreted NanoLuc and is based on the protocol by Promega (Nano-Glo® Luciferase Assay System #N1110-1150). The protocol is designed for a 384-wells plate, but volumes can be changed accordingly for other plates.
• 1. Plate cells (HeLa) in 96-well plate, grow until 80% confluent and transfect with SecNanoLuc mRNA and incubate for the desired period (24 h). • 2. After incubation, the translated protein is accumulated in the medium. Transfer medium to a new plate or tubes • 3. Transfer 12 μl of each sample to a black-walled, clear-bottom 384-well plate • a. Black-walled plates are important to prevent shine-through of luminescence from other wells; alternatively, multiple wells between samples can be left empty • 4. Set-up plate reader • 5. Prepare the desired amount of Nano-Glo® Luciferase Assay Reagent by combining one volume of Nano-Glo® Luciferase Assay Substrate with 50 volumes of Nano-Glo® Luciferase Assay Buffer • a. composition: 100 mM MES pH 6; 1 mM EDTA; 0.5% NP-50; 150 mM KCl; 1 mM DTT; 35 mM Thiourea • b. Briefly spin tubes containing substrate in a microcentrifuge before use • 6. Add and mix (by pipetting) 12 μl Nano-Glo® Luciferase Assay Reagent per well • a. Wait approximately 3 minutes before measuring luminescence. […] Measure luminescence in plate reader using standard protocol luciferase (this includes mixing sample in plate reader)

`CCCCCCCCC(CCCCCC)C(=O)OCCCCCCN(CCCCO)CCCCCCOC(CCCCCCC)O[Si](C)(C)CCCCCCCC` (stereo not drawn) [Example 129, 15-heptyl-7-(4-hydroxybutyl)-17,17-dimethyl-14,16-dioxa-7-aza-17-silapentacosyl 2-hexyldecanoate]: in series [1], the “EE (%)” value is on record as 96%. The “Transfection* (Method A = 100 ng mRNA)” value in series [2] turned out to be 962783.

As to `CC/C=C\C/C=C\C/C=C\C/C=C\C/C=C\CCCCN(CCCCO)CCCCCCOC(CCCCCCC)O[Si](C)(C)CCCCCCCC` (stereo not drawn) [Example 195, 13-heptyl-5-((5Z,8Z,11Z,14Z,17Z)-icosa-5,8,11,14,17-pentaen-1-yl)-15,15-dimethyl-12,14-dioxa-5-aza-15-silatricosan-1-ol], the “EE (%)” value in series [1] is reported as 96%. Further, the “Transfection* (Method A = 100 ng mRNA)” value in series [2] amounted to 180769.

Take `CCCCCCCCOC(CCCCCCC)O[Si](C)(C)CCCCCCN(CCCCO)CCCCCCOC(=O)C(CCCCCCCC)SCCCCC` (stereo not drawn) [Example 187, 16-heptyl-7-(4-hydroxybutyl)-14,14-dimethyl-15,17-dioxa-7-aza-14-silapentacosyl 2-(pentylthio)decanoate]: the “EE (%)” value in series [1] is 92%. In addition, the “Transfection* (Method A = 100 ng mRNA)” value in series [2] is 838984.

Regarding `CCCCCCCCCCSC(CCCC)C(=O)OCCCCCCN(CCCCO)CCCCCC(OCCCCCCCC)O[Si](C)(C)O[Si](C)(C)OCCCCCCCC` (stereo not drawn) [Example 172, 6-((4-hydroxybutyl)(6-(octyloxy)-6-((1,1,3,3-tetramethyl-3-(octyloxy)disiloxaneyl)oxy)hexyl)amino)hexyl 2-(decylthio)hexanoate], the “EE (%)” value in series [1] was 97%. The “Transfection* (Method A = 100 ng mRNA)” value in series [2] is reported as 301328.

In the case of `CCCCCCCCCCSC(CCCC)C(=O)OCCCCCCN(CCCCO)CCCCCC(OCCCCCCCC)O[Si](C)(C)O[Si](C)(C)CCCCCCCC` (stereo not drawn) [Example 170, 6-((4-hydroxybutyl)(6-(octyloxy)-6-((1,1,3,3-tetramethyl-3-octyldisiloxaneyl)oxy)hexyl)amino)hexyl 2-(decylthio)hexanoate], in series [1], the “EE (%)” value is 94%. Also, the “Transfection* (Method A = 100 ng mRNA)” value in series [2] came to 711747.

In the case of `CCCCCCCCCCOC(CCCCC)O[Si](C)(C)OCCCCCCN(CCCCO)CCCCCCOC(=O)C(CCCCCC)CCCCCCCC` (stereo not drawn) [Example 145, 7-(4-hydroxybutyl)-15,15-dimethyl-17-pentyl-14,16,18-trioxa-7-aza-15-silaoctacosyl 2-hexyldecanoate], the “EE (%)” value in series [1] was 97%. The “Transfection* (Method A = 100 ng mRNA)” value in series [2] came out at 5735227.

For the compound `CCCCCCCC[Si](C)(C)O[Si](C)(C)OC(CCCCCCC)OCCCCCCN(CCCCO)CCCCCCOC(CCCCCCC)O[Si](C)(C)O[Si](C)(C)CCCCCCCC` (stereo not drawn) [Example 108, 13-heptyl-15,15,17,17-tetramethyl-5-(6-((1-((1,1,3,3-tetramethyl-3-octyldisiloxaneyl)oxy)octyl)oxy)hexyl)-12,14,16-trioxa-5-aza-15,17-disilapentacosan-1-ol], in series [1], the “EE (%)” value was determined as 94%. In addition, the “Transfection* (Method A = 100 ng mRNA)” value in series [2] was 7926.

Regarding `CCCCCCCCCCSC(CCCC)C(=O)OCCCCCCN(CCCCO)CCCCCCOC(CCCCCCC)O[Si](C)(C)O[Si](C)(C)OCCCCCCCC` (stereo not drawn) [Example 173, 15-heptyl-7-(4-hydroxybutyl)-17,17,19,19-tetramethyl-14,16,18,20-tetraoxa-7-aza-17,19-disilaoctacosyl 2-(decylthio)hexanoate], in series [1], the “EE (%)” value was determined as 97%. Moreover, in series [2], the “Transfection* (Method A = 100 ng mRNA)” value stood at 182533.

Regarding `CCCCCCCCOC(CCCCCC)O[Si](C)(C)OCCCCCCN(CCCCO)CCCCCCOC(=O)C(CCCCCC)CCCCCCCC` (stereo not drawn) [Example 142, 17-hexyl-7-(4-hydroxybutyl)-15,15-dimethyl-14,16,18-trioxa-7-aza-15-silahexacosyl 2-hexyldecanoate], the “EE (%)” value in series [1] came to 96%. In addition, the “Transfection* (Method A = 100 ng mRNA)” value in series [2] is on record as 5491290.

For `CCCCCCCCOC(CCCCCN(CCCCO)CCCCCC(OCCCCCCCC)O[Si](C)(C)O[Si](C)(C)CCCCCCCC)O[Si](C)(C)O[Si](C)(C)CCCCCCCC` (stereo not drawn) [Example 107, 4-(bis(6-(octyloxy)-6-((1,1,3,3-tetramethyl-3-octyldisiloxaneyl)oxy)hexyl)amino)butan-1-ol], the “EE (%)” value in series [1] amounted to 96%. The “Transfection* (Method A = 100 ng mRNA)” value in series [2] turned out to be 3677.5.

On to `CCCCCCCCOC(CCCCCN(CCCCO)CCCCCCOC(=O)C(CCCCCC)CCCCCCCC)O[Si](C)(C)CCCCCCCC` (stereo not drawn) [Example 128, 6-((6-((dimethyl(octyl)silyl)oxy)-6-(octyloxy)hexyl)(4-hydroxybutyl)amino)hexyl 2-hexyldecanoate], for which the “EE (%)” value in series [1] was found to be 97%. Further, the “Transfection* (Method A = 100 ng mRNA)” value in series [2] stood at 647195.5.

For `CCCCCCCCOC(CCCCCCC)O[Si](C)(C)OCCCCCCN(CCCCO)CCCCCCOC(=O)C(CCCCCC)CCCCCCCC` (stereo not drawn) [Example 139, 17-heptyl-7-(4-hydroxybutyl)-15,15-dimethyl-14,16,18-trioxa-7-aza-15-silahexacosyl 2-hexyldecanoate], the “EE (%)” value in series [1] is reported as 94%. For the same compound, the “Transfection* (Method A = 100 ng mRNA)” value in series [2] was determined as 11829351.

As for `CCCCCCCCOC(CCCCCCC)O[Si](C)(C)CCCCCCN(CCCCO)CCCCCCOC(=O)C(CCCCCC)CCCCCCCC` (stereo not drawn) [Example 138, 16-heptyl-7-(4-hydroxybutyl)-14,14-dimethyl-15,17-dioxa-7-aza-14-silapentacosyl 2-hexyldecanoate], the “EE (%)” value in series [1] worked out at 95%. The “Transfection* (Method A = 100 ng mRNA)” value in series [2] was 1216014.

As for `CCCCCCCCOC(CCCCCN(CCO)CCCCCCCC(=O)OC(CCCCCCCC)CCCCCCCC)O[Si](C)(C)OCCCCCCCC` (stereo not drawn) [Example 190, heptadecan-9-yl 18-(2-hydroxyethyl)-10,10-dimethyl-12-(octyloxy)-9,11-dioxa-18-aza-10-silahexacosan-26-oate], the “EE (%)” value in series [1] was 93%. Moreover, the “Transfection* (Method A = 100 ng mRNA)” value in series [2] came out at 15121.

As for `CC/C=C\C/C=C\C/C=C\C/C=C\C/C=C\CCCCN(CCCCO)CCCCCCOC(CCCCCCC)O[Si](C)(C)O[Si](C)(C)OCCCCCCCC` (stereo not drawn) [Example 201, 13-heptyl-5-((5Z,8Z,11Z,14Z,17Z)-icosa-5,8,11,14,17-pentaen-1-yl)-15,15,17,17-tetramethyl-12,14,16,18-tetraoxa-5-aza-15,17-disilahexacosan-1-ol], the “EE (%)” value in series [1] is given as 95%. The “Transfection* (Method A = 100 ng mRNA)” value in series [2] was 25071.
